Data as given in the supplement of paper PMC5908809.

How the values were obtained:
[1] = system: normal NK cells expanded with K562-aAPC; experiment: drug sensitivity score (DSS) (DSS units); higher = more sensitive; extreme values may be limits of the assay; details: 72 h; IL-2 2.5 ng/mL
Protocol: (§1)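 Drug sensitivity and resistance testing on K562-aAPC-expanded normal NK cells: 5 concentrations (10-fold steps over a 10,000-fold range), 72 h at 37 °C, viability by CellTiter-Glo normalised to DMSO and benzethonium chloride controls; DSS from the fitted curve.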

NK-YS (IL-2 2.5 ng/mL) [2] = experiment: as above; details: 72 h
[3] = system: normal primary NK cells, pool 1 (3 donors), resting (IL-2 0 ng/mL); experiment: as above; details: 72 h
DERL-7 (IL-2 2.5 ng/mL) [4] = experiment: as above; details: 72 h
NKL (IL-2 2.5 ng/mL) [5] = experiment: as above; details: 72 h
KHYG-1 (IL-2 2.5 ng/mL) [6] = experiment: as above; details: 72 h
KAI3 (IL-2 2.5 ng/mL) [7] = experiment: as above; details: 72 h
YT (IL-2 2.5 ng/mL) [8] = experiment: as above; details: 72 h
SNK-6 (IL-2 2.5 ng/mL) [9] = experiment: as above; details: 72 h
[10] = system: normal primary NK cells, pool 1 (3 donors) (IL-2 2.5 ng/mL); experiment: as above; details: 72 h
NK-92 (IL-2 2.5 ng/mL) [11] = experiment: as above; details: 72 h
[12] = system: normal primary NK cells, pool 2 (3 donors) (IL-2 2.5 ng/mL); experiment: as above; details: 72 h
IMC-1 (IL-2 20 ng/mL) [13] = experiment: as above; details: 72 h
[14] = system: normal primary NK cells, pool 3 (3 donors) (IL-2 2.5 ng/mL); experiment: as above; details: 72 h
[15] = system: normal NK cells expanded with K562-aAPC; experiment: percent inhibition of viability; higher = more inhibition; details: 72 h, IL-2 2.5 ng/mL
Protocol: as §1

NK-YS (IL-2 2.5 ng/mL) [16] = experiment: as above; details: 72 h
[17] = system: normal primary NK cells, pool 1 (3 donors), resting (IL-2 0 ng/mL); experiment: as above; details: 72 h
DERL-7 (IL-2 2.5 ng/mL) [18] = experiment: as above; details: 72 h
NKL (IL-2 2.5 ng/mL) [19] = experiment: as above; details: 72 h
KHYG-1 (IL-2 2.5 ng/mL) [20] = experiment: as above; details: 72 h
KAI3 (IL-2 2.5 ng/mL) [21] = experiment: as above; details: 72 h
YT (IL-2 2.5 ng/mL) [22] = experiment: as above; details: 72 h
SNK-6 (IL-2 2.5 ng/mL) [23] = experiment: as above; details: 72 h
[24] = system: normal primary NK cells, pool 1 (3 donors) (IL-2 2.5 ng/mL); experiment: as above; details: 72 h
NK-92 (IL-2 2.5 ng/mL) [25] = experiment: as above; details: 72 h
[26] = system: normal primary NK cells, pool 2 (3 donors) (IL-2 2.5 ng/mL); experiment: as above; details: 72 h
IMC-1 (IL-2 20 ng/mL) [27] = experiment: as above; details: 72 h
[28] = system: normal primary NK cells, pool 3 (3 donors) (IL-2 2.5 ng/mL); experiment: as above; details: 72 h

N#CCNC(=O)c1ccc(-c2ccnc(Nc3ccc(N4CCOCC4)cc3)n2)cc1 [Momelotinib] (max concentration tested 10000 nM)
Details | drug sensitivity score
DERL-7 (IL-2 2.5 ng/mL) [4] | 16
IMC-1 (IL-2 20 ng/mL) [13] | 8.56
KAI3 (IL-2 2.5 ng/mL) [7] | 17.1
KHYG-1 (IL-2 2.5 ng/mL) [6] | 21.2
NK-92 (IL-2 2.5 ng/mL) [11] | 12.3
NK-YS (IL-2 2.5 ng/mL) [2] | 12.2
NKL (IL-2 2.5 ng/mL) [5] | 18.1
SNK-6 (IL-2 2.5 ng/mL) [9] | 11.5
YT (IL-2 2.5 ng/mL) [8] | 9.23
[1] | 15.6
[3] | 1.97
[10] | 14.8
[12] | 11.5
[14] | 10.2

percent inhibition of viability [%]
Details | 1 nM | 10 nM | 100 nM | 1000 nM | 10000 nM
DERL-7 (IL-2 2.5 ng/mL) [18] | 3.73 | 4.25 | 15.9 | 75.2 | 100
IMC-1 (IL-2 20 ng/mL) [27] | -3.83 | -4.31 | -6.56 | 18.6 | 101
KAI3 (IL-2 2.5 ng/mL) [21] | 5.39 | 5.27 | 21.2 | 79.2 | 85.8
KHYG-1 (IL-2 2.5 ng/mL) [20] | -1.96 | -4.26 | 19.9 | 103 | 102
NK-92 (IL-2 2.5 ng/mL) [25] | -4.89 | 7.75 | 12.7 | 57.3 | 73.3
NK-YS (IL-2 2.5 ng/mL) [16] | -3.04 | -5.27 | 11.4 | 54.4 | 98.9
NKL (IL-2 2.5 ng/mL) [19] | -4.28 | -2.44 | 28.4 | 79.3 | 88
SNK-6 (IL-2 2.5 ng/mL) [23] | 23.1 | 10.8 | 3.39 | 52.2 | 96
YT (IL-2 2.5 ng/mL) [22] | -0.29 | -0.45 | 5.77 | 38.1 | 86.3
[15] | -1.5 | 4.78 | 16.6 | 72 | 96.9
[17] | -6.11 | -14.1 | 3.47 | 15.8 | 14.3
[24] | -14.4 | -4.36 | 20.3 | 65.5 | 70.3
[26] | -6.15 | -4.46 | 2.38 | 54.3 | 91.2
[28] | 0.52 | -6.13 | -0.97 | 43.2 | 86.9

CC1(C)CCC(c2ccc(Cl)cc2)=C(CN2CCN(c3ccc(C(=O)NS(=O)(=O)c4ccc(N[C@H](CCN5CCOCC5)CSc5ccccc5)c(S(=O)(=O)C(F)(F)F)c4)cc3)CC2)C1 [Navitoclax] (max concentration tested 10000 nM)
Details | drug sensitivity score
DERL-7 (IL-2 2.5 ng/mL) [4] | 23
IMC-1 (IL-2 20 ng/mL) [13] | 9.91
KAI3 (IL-2 2.5 ng/mL) [7] | 42.1
KHYG-1 (IL-2 2.5 ng/mL) [6] | 26.3
NK-92 (IL-2 2.5 ng/mL) [11] | 18.6
NK-YS (IL-2 2.5 ng/mL) [2] | 24.8
NKL (IL-2 2.5 ng/mL) [5] | 29.4
SNK-6 (IL-2 2.5 ng/mL) [9] | 39.8
YT (IL-2 2.5 ng/mL) [8] | 26.4
[1] | 11.7
[3] | 36.1
[10] | 25.1
[12] | 24.6
[14] | 19.2

percent inhibition of viability [%]
Details | 1 nM | 10 nM | 100 nM | 1000 nM | 10000 nM
DERL-7 (IL-2 2.5 ng/mL) [18] | 2 | 1.88 | 47.8 | 93 | 100
IMC-1 (IL-2 20 ng/mL) [27] | -6.88 | -0.75 | 19.6 | 38.7 | 79.4
KAI3 (IL-2 2.5 ng/mL) [21] | 19.6 | 80.7 | 102 | 104 | 97.4
KHYG-1 (IL-2 2.5 ng/mL) [20] | -3.19 | -1.54 | 72.7 | 102 | 96.3
NK-92 (IL-2 2.5 ng/mL) [25] | -0.38 | -1.7 | 27 | 83.7 | 95.2
NK-YS (IL-2 2.5 ng/mL) [16] | 0.62 | 12 | 56.3 | 99.3 | 96.6
NKL (IL-2 2.5 ng/mL) [19] | -5.66 | 12.4 | 83.2 | 101 | 97.8
SNK-6 (IL-2 2.5 ng/mL) [23] | 16.9 | 69.7 | 99 | 99.5 | 98.8
YT (IL-2 2.5 ng/mL) [22] | 2.71 | 25.2 | 69.4 | 77.4 | 87.6
[15] | -0.31 | -4.48 | 10.3 | 55 | 77
[17] | 2.54 | 48 | 98.3 | 100 | 99.9
[24] | -16.8 | -9.66 | 60 | 94 | 99.9
[26] | -16.4 | 3.46 | 56.9 | 95.9 | 99
[28] | -14.4 | -12.2 | 24.6 | 87.2 | 95.9

COc1nc(N)nc2c1ncn2[C@@H]1O[C@H](CO)[C@@H](O)[C@@H]1O [Nelarabine] (max concentration tested 10000 nM)
Details | drug sensitivity score
DERL-7 (IL-2 2.5 ng/mL) [4] | 4.29
IMC-1 (IL-2 20 ng/mL) [13] | 0
KAI3 (IL-2 2.5 ng/mL) [7] | 8.27
KHYG-1 (IL-2 2.5 ng/mL) [6] | 1.02
NK-92 (IL-2 2.5 ng/mL) [11] | 2.5
NK-YS (IL-2 2.5 ng/mL) [2] | 0.54
NKL (IL-2 2.5 ng/mL) [5] | 4.79
SNK-6 (IL-2 2.5 ng/mL) [9] | 0
YT (IL-2 2.5 ng/mL) [8] | 0
[1] | 6.13
[3] | 25.3
[10] | 14.4
[12] | 13.8
[14] | 15.7

percent inhibition of viability [%]
Details | 1 nM | 10 nM | 100 nM | 1000 nM | 10000 nM
DERL-7 (IL-2 2.5 ng/mL) [18] | 1.44 | 7.77 | 2.31 | 12.4 | 46.1
IMC-1 (IL-2 20 ng/mL) [27] | -3.75 | -1.52 | -5.24 | -11.7 | -10.4
KAI3 (IL-2 2.5 ng/mL) [21] | 15.6 | 16.4 | 12.6 | 25.8 | 53.3
KHYG-1 (IL-2 2.5 ng/mL) [20] | 4.68 | -0.73 | -1.55 | -1.11 | 27.2
NK-92 (IL-2 2.5 ng/mL) [25] | 8.71 | -6.85 | 4.79 | 8.69 | 32
NK-YS (IL-2 2.5 ng/mL) [16] | 2.42 | -3.62 | 0.15 | 3.98 | 14.6
NKL (IL-2 2.5 ng/mL) [19] | 5.77 | 8.18 | 3.83 | 10.4 | 56.7
SNK-6 (IL-2 2.5 ng/mL) [23] | 2.48 | -13.9 | -9.19 | -25.6 | -2.36
YT (IL-2 2.5 ng/mL) [22] | 2.6 | -3.18 | 0.56 | 1.65 | 5.92
[15] | 0.53 | 1.13 | 1.94 | 15.5 | 66.8
[17] | 14.4 | 22.7 | 58.9 | 88.3 | 91.7
[24] | -10.4 | -4.07 | 23.9 | 61.1 | 92.1
[26] | -2.48 | 5 | 21.2 | 59.8 | 82.4
[28] | 11.4 | 8.39 | 27.7 | 65.5 | 82.3
